Earlier results, collected in patent publication US20050249799A1, “Polymeric drug delivery system for hydrophobic drugs” (Spherics, Inc., priority 2004, published 2005).
Like-named read-outs stand apart in the source and are kept apart here.

What was measured:
[1] = not given; remark: listed apart in the source

For `NC(=O)N1c2ccccc2C=Cc2ccccc21` [Carbamazepine, 5H-dibenz[b,f]azepine-5-carboxamide], the solubility in water is listed as “practically insoluble”, the “time to peak plasma concentrations” value ([1]; oral) is listed as 4 to 24 h and the bioavailability ([1]; tablet form) is listed as 89%.

For `CCC(C)n1ncn(-c2ccc(N3CCN(c4ccc(OCC5COC(Cn6cncn6)(c6ccc(Cl)cc6Cl)O5)cc4)CC3)cc2)c1=O` (centres unmarked) [itraconazole, Itraconazole], the bioavailability ([1]; oral capsule) is given as 55%.

For `C#C[C@]1(O)CC[C@H]2[C@@H]3CCC4=Cc5oncc5C[C@]4(C)[C@H]3CC[C@@]21C` [Danazol, 17a-Pregna-2,4-dien-20-yno[2,3-d]-isoxazol-17-ol], the half-life ([1]; in vivo) is given as 4 to 5 h, the “increase in plasma concentration on doubling the dose” value ([1]; oral) is given as 30-40% and the “time to peak plasma concentrations” value ([1]; oral) is given as no more than 2 h.

For `Nc1nc2c(ncn2COCCO)c(=O)[nH]1` [Acyclovir, 2-amino-1,9-dihydro-9-[(2-hydroxyethoxy)methyl]-6H-purin-6-one], the absolute bioavailability ([1]; 200 mg dose given every 4 hours) is listed as 20%.
